Consider 13 molecules from PubChem BioAssay (NCI).

Test systems include HS 578T breast; 786-0 renal; HOP-62 NSCLC; NCI-H460 lung; SR leukemia; KM12 colon; RPMI-8226 leukemia; UACC-257 melanoma; SK-MEL-5 melanoma; HT29 colon; MALME-3M melanoma.
Holding throughout (assay): NCI-60 cell line screen, 48 h

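Briefly, cells in 96-well plates were exposed to five compound concentrations for 48 h, and endpoints were estimated by linear interpolation. TGI: concentration producing complete growth inhibition.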

`COc1ccc(N=C(C)C(C)=Nc2ccc(OC)cc2)cc1`: the TGI in the assay on HS 578T breast, with 786-0 renal, in the assay on HOP-62 NSCLC, with NCI-H460 lung, in the assay on SR leukemia and in the assay with KM12 colon was over 100 µM each time. For the same molecule, the TGI in the assay with RPMI-8226 leukemia, with UACC-257 melanoma, in the assay with SK-MEL-5 melanoma, in the assay with HT29 colon and with MALME-3M melanoma was over 100 µM throughout.
On to `C[C@@H]([C@H]1CC[C@@]2(C)[C@@H]3CC[C@@H]4C(=CC3=CC[C@]12C)CC[C@H](N(C)C)C4(C)C)N(C)C`, for which the TGI in the assay with HS 578T breast, in the assay with 786-0 renal, in the assay on HOP-62 NSCLC, in the assay with NCI-H460 lung, in the assay with SR leukemia and with KM12 colon was over 100 µM each time. Further, the TGI in the assay on RPMI-8226 leukemia, in the assay on UACC-257 melanoma, in the assay with SK-MEL-5 melanoma, in the assay on HT29 colon and in the assay on MALME-3M melanoma was over 100 µM in each case.
On to `COc1c(NC(C)=O)c2ccccc2c2ccccc12`, for which the TGI in the assay on HS 578T breast, with 786-0 renal, in the assay on HOP-62 NSCLC, in the assay on NCI-H460 lung, in the assay on SR leukemia and in the assay on KM12 colon was over 100 µM in each case. The TGI with UACC-257 melanoma, in the assay with SK-MEL-5 melanoma, with HT29 colon and in the assay with MALME-3M melanoma was over 100 µM in each case.
Consider `C[C@H](NC(=O)C(C)(Cc1ccc(O)cn1)NC(=O)c1ccccc1)c1ccccc1` (some centres not stated), for which the TGI with HS 578T breast, with 786-0 renal, in the assay on HOP-62 NSCLC, in the assay with KM12 colon, with RPMI-8226 leukemia and in the assay on UACC-257 melanoma was over 100 µM in each case. Moreover, the TGI in the assay with SK-MEL-5 melanoma, in the assay with HT29 colon and with MALME-3M melanoma was over 100 µM throughout.
With `CC(C)=CCNc1ncnc2c1ncn2CCC(=O)O`, the TGI in the assay on HS 578T breast, in the assay with 786-0 renal, in the assay on HOP-62 NSCLC, with NCI-H460 lung, in the assay on SR leukemia and in the assay with KM12 colon was over 100 µM each time. Also, the TGI with RPMI-8226 leukemia, with SK-MEL-5 melanoma, with HT29 colon and in the assay on MALME-3M melanoma was over 100 µM throughout.
With `O=Cc1c2c(cc3c1CC1(C3)Cc3cc4c(c(C=O)c3C1)CCC4)CCC2`, the TGI in the assay on HS 578T breast is 80.5 µM; in the assay on 786-0 renal it was over 100 µM; with HOP-62 NSCLC it was 51.4 µM; with SR leukemia, 73 µM; with RPMI-8226 leukemia, over 100 µM; in the assay on UACC-257 melanoma it was over 100 µM. Moreover, the TGI with SK-MEL-5 melanoma was over 100 µM; with HT29 colon, over 100 µM; in the assay with MALME-3M melanoma, 89.3 µM.
In the case of `C=CC(C)(C)/C(=C\CO[Si](C(C)C)(C(C)C)C(C)C)C(=O)N(C)c1ccccc1I`, the TGI in the assay on HS 578T breast was 27.1 µM; in the assay on 786-0 renal it was 27.6 µM; in the assay on HOP-62 NSCLC, 35.8 µM; in the assay on NCI-H460 lung it was 28.1 µM; in the assay on SR leukemia, 27.7 µM; with KM12 colon, over 100 µM. Moreover, the TGI with RPMI-8226 leukemia stood at 8.54 µM; with UACC-257 melanoma it was 28.7 µM; with SK-MEL-5 melanoma it was 32.1 µM; in the assay with HT29 colon, 27.1 µM.
As for `CCOC(=O)c1cnc2n(c1=O)[C@H]1CCCC[C@@H]1N2`, the TGI in the assay with HS 578T breast, with 786-0 renal, in the assay with NCI-H460 lung, with KM12 colon, in the assay on RPMI-8226 leukemia and in the assay on UACC-257 melanoma was over 100 µM each time. Further, the TGI in the assay on SK-MEL-5 melanoma, in the assay with HT29 colon and with MALME-3M melanoma was over 100 µM each time.
On to `Cc1cc(NS(=O)(=O)c2ccc(Nc3c4ccccc4nc4c(C(=O)NC(CO)(CO)CO)cccc34)cc2)no1`, for which the TGI is 52.7 µM in the assay with HS 578T breast; over 100 µM in the assay on 786-0 renal; 68.8 µM with HOP-62 NSCLC; 91.4 µM with SR leukemia; 71.4 µM with KM12 colon; 63.9 µM with RPMI-8226 leukemia. Moreover, the TGI with UACC-257 melanoma was over 100 µM; in the assay on SK-MEL-5 melanoma, over 100 µM; in the assay with HT29 colon, over 100 µM; in the assay on MALME-3M melanoma it was 92.2 µM.
`CNCC(SC)c1ccc(O)c(O)c1` (configuration not stated): the TGI with HS 578T breast is over 100 µM; in the assay with 786-0 renal, 39.1 µM; with HOP-62 NSCLC, over 100 µM; in the assay with NCI-H460 lung, 33.2 µM; in the assay on KM12 colon, over 100 µM; in the assay on RPMI-8226 leukemia, 58.6 µM. Also, the TGI in the assay with UACC-257 melanoma is 27.9 µM; with SK-MEL-5 melanoma, over 100 µM; in the assay on HT29 colon it was 99.5 µM; in the assay on MALME-3M melanoma, 32.4 µM.
On to `COc1ccc(C2C3=C(COC3=O)Oc3cc4c(cc32)OCO4)cc1OC` (configuration not stated), for which the TGI is 6.14 µM in the assay on HS 578T breast; over 100 µM in the assay on 786-0 renal; over 96.9 µM in the assay on HOP-62 NSCLC; over 100 µM in the assay on NCI-H460 lung; over 71.7 µM with KM12 colon; over 23.5 µM with RPMI-8226 leukemia. The TGI with UACC-257 melanoma was over 100 µM; with SK-MEL-5 melanoma, over 100 µM; with HT29 colon, 13 µM; in the assay with MALME-3M melanoma it was over 100 µM.
As for `Cc1ccc(N=Nc2c(O)ccc3ccccc23)c(C)c1`, the TGI with HS 578T breast, in the assay with 786-0 renal, in the assay with HOP-62 NSCLC, in the assay with KM12 colon, with RPMI-8226 leukemia and in the assay with UACC-257 melanoma was over 100 µM throughout. In addition, the TGI in the assay with SK-MEL-5 melanoma and in the assay on HT29 colon was over 100 µM each time.
Turning to `Cc1noc(-c2ccc(C(=O)O)[nH]2)c1Br`, the TGI in the assay on HS 578T breast is over 100 µM; in the assay on 786-0 renal it was 91.9 µM; in the assay on HOP-62 NSCLC, 77.3 µM; with NCI-H460 lung it was over 100 µM; in the assay on KM12 colon, over 100 µM; in the assay on RPMI-8226 leukemia it was over 100 µM. Further, the TGI in the assay with UACC-257 melanoma, in the assay with SK-MEL-5 melanoma, with HT29 colon and with MALME-3M melanoma was over 100 µM each time.
